Data from the NIST ThermoML archive (doi:10.1016/j.tca.2010.08.002).
± gives the expanded uncertainty stated by the source.

Test: molar heat capacity at saturation pressure
Conditions: Vacuum adiabatic calorimetry

**Q.** Which results are given for `CCCCn1cc[n+](C)c1.O=S(=O)([O-])C(F)(F)F` [1-butyl-3-methylimidazolium trifluoromethanesulfonate]?
**A.** molar heat capacity (170.36 K, Crystal): 235.9 ± 0.4 J/K/mol; molar heat capacity (171.28 K, Crystal): 236.8 ± 0.4 J/K/mol; molar heat capacity (172.71 K, Crystal): 238.3 ± 0.4 J/K/mol; molar heat capacity (173.26 K, Crystal): 238.8 ± 0.4 J/K/mol; molar heat capacity (175.07 K, Crystal): 240.6 ± 0.4 J/K/mol; molar heat capacity (175.23 K, Crystal): 240.9 ± 0.4 J/K/mol; molar heat capacity (177.2 K, Crystal): 242.9 ± 0.4 J/K/mol; molar heat capacity (177.42 K, Crystal): 243.1 ± 0.4 J/K/mol; molar heat capacity (179.17 K, Crystal): 245 ± 0.4 J/K/mol; molar heat capacity (179.77 K, Crystal): 245.6 ± 0.4 J/K/mol; molar heat capacity (181.13 K, Crystal): 247.1 ± 0.5 J/K/mol; molar heat capacity (182.11 K, Crystal): 248.1 ± 0.5 J/K/mol; molar heat capacity (183.1 K, Crystal): 249.2 ± 0.5 J/K/mol; molar heat capacity (184.46 K, Crystal): 250.6 ± 0.5 J/K/mol; molar heat capacity (185.06 K, Crystal): 251.3 ± 0.5 J/K/mol; molar heat capacity (186.8 K, Crystal): 253.2 ± 0.5 J/K/mol; molar heat capacity (187.02 K, Crystal): 253.5 ± 0.5 J/K/mol; molar heat capacity (188.97 K, Crystal): 255.7 ± 0.5 J/K/mol; molar heat capacity (189.13 K, Crystal): 255.8 ± 0.5 J/K/mol; molar heat capacity (190.92 K, Crystal): 257.9 ± 0.5 J/K/mol; molar heat capacity (191.47 K, Crystal): 258.4 ± 0.5 J/K/mol; molar heat capacity (192.87 K, Crystal): 260 ± 0.5 J/K/mol; molar heat capacity (193.8 K, Crystal): 260.9 ± 0.5 J/K/mol; molar heat capacity (194.82 K, Crystal): 262.1 ± 0.5 J/K/mol; molar heat capacity (196.12 K, Crystal): 263.5 ± 0.5 J/K/mol; molar heat capacity (196.77 K, Crystal): 264.3 ± 0.5 J/K/mol; molar heat capacity (198.44 K, Crystal): 266.1 ± 0.5 J/K/mol; molar heat capacity (198.72 K, Crystal): 266.6 ± 0.5 J/K/mol; molar heat capacity (200.66 K, Crystal): 268.7 ± 0.5 J/K/mol; molar heat capacity (200.76 K, Crystal): 268.7 ± 0.5 J/K/mol; molar heat capacity (202.67 K, Crystal): 271 ± 0.5 J/K/mol; molar heat capacity (203.13 K, Crystal): 271.4 ± 0.5 J/K/mol; molar heat capacity (204.73 K, Crystal): 273.3 ± 0.5 J/K/mol; molar heat capacity (205.57 K, Crystal): 274.2 ± 0.5 J/K/mol; molar heat capacity (206.78 K, Crystal): 275.7 ± 0.5 J/K/mol; molar heat capacity (208 K, Crystal): 276.9 ± 0.5 J/K/mol; molar heat capacity (208.82 K, Crystal): 278.1 ± 0.5 J/K/mol; molar heat capacity (210.42 K, Crystal): 279.6 ± 0.5 J/K/mol; molar heat capacity (210.87 K, Crystal): 280.4 ± 0.5 J/K/mol; molar heat capacity (212.84 K, Crystal): 282.5 ± 0.5 J/K/mol; molar heat capacity (212.92 K, Crystal): 282.7 ± 0.5 J/K/mol; molar heat capacity (214.96 K, Crystal): 285 ± 0.5 J/K/mol; molar heat capacity (215.25 K, Crystal): 285.3 ± 0.5 J/K/mol; molar heat capacity (217 K, Crystal): 287.4 ± 0.5 J/K/mol; molar heat capacity (217.66 K, Crystal): 288 ± 0.5 J/K/mol; molar heat capacity (219.02 K, Crystal): 289.6 ± 0.5 J/K/mol; molar heat capacity (220.07 K, Crystal): 290.8 ± 0.5 J/K/mol; molar heat capacity (221.05 K, Crystal): 292.2 ± 0.5 J/K/mol; molar heat capacity (222.47 K, Crystal): 293.7 ± 0.5 J/K/mol; molar heat capacity (223.08 K, Crystal): 294.5 ± 0.5 J/K/mol; molar heat capacity (224.86 K, Crystal): 296.5 ± 0.5 J/K/mol; molar heat capacity (225.1 K, Crystal): 296.8 ± 0.5 J/K/mol; molar heat capacity (227.12 K, Crystal): 299.4 ± 0.5 J/K/mol; molar heat capacity (227.25 K, Crystal): 299.4 ± 0.5 J/K/mol; molar heat capacity (229.13 K, Crystal): 301.7 ± 0.5 J/K/mol; molar heat capacity (229.63 K, Crystal): 302.3 ± 0.5 J/K/mol; molar heat capacity (231.14 K, Crystal): 304 ± 0.5 J/K/mol; molar heat capacity (232 K, Crystal): 305.2 ± 0.5 J/K/mol; molar heat capacity (233.14 K, Crystal): 306.6 ± 0.5 J/K/mol; molar heat capacity (234.37 K, Crystal): 308.1 ± 0.5 J/K/mol; molar heat capacity (235.15 K, Crystal): 308.9 ± 0.5 J/K/mol; molar heat capacity (236.73 K, Crystal): 311 ± 0.5 J/K/mol; molar heat capacity (237.14 K, Crystal): 311.5 ± 0.5 J/K/mol; molar heat capacity (239.09 K, Crystal): 313.8 ± 0.5 J/K/mol; molar heat capacity (239.13 K, Crystal): 313.8 ± 0.5 J/K/mol; molar heat capacity (241.12 K, Crystal): 316.1 ± 0.5 J/K/mol; molar heat capacity (241.44 K, Crystal): 316.7 ± 0.5 J/K/mol; molar heat capacity (243.1 K, Crystal): 318.7 ± 0.5 J/K/mol; molar heat capacity (243.78 K, Crystal): 319.6 ± 0.5 J/K/mol; molar heat capacity (245.08 K, Crystal): 321 ± 0.5 J/K/mol; molar heat capacity (246.12 K, Crystal): 322.2 ± 0.5 J/K/mol; molar heat capacity (247.06 K, Crystal): 323.3 ± 0.5 J/K/mol; molar heat capacity (248.45 K, Crystal): 325.1 ± 0.5 J/K/mol; molar heat capacity (249.03 K, Crystal): 325.9 ± 0.5 J/K/mol; molar heat capacity (250.76 K, Crystal): 328 ± 0.5 J/K/mol; molar heat capacity (250.78 K, Crystal): 328 ± 0.5 J/K/mol; molar heat capacity (250.99 K, Crystal): 328.3 ± 0.5 J/K/mol; molar heat capacity (252.81 K, Crystal): 330.6 ± 0.5 J/K/mol; molar heat capacity (252.95 K, Crystal): 330.6 ± 0.5 J/K/mol; molar heat capacity (253.1 K, Crystal): 330.8 ± 0.5 J/K/mol; molar heat capacity (254.78 K, Crystal): 332.9 ± 0.5 J/K/mol; molar heat capacity (254.91 K, Crystal): 333.2 ± 0.5 J/K/mol; molar heat capacity (255.41 K, Crystal): 333.7 ± 0.5 J/K/mol; molar heat capacity (256.73 K, Crystal): 335.5 ± 0.5 J/K/mol; molar heat capacity (256.86 K, Crystal): 335.5 ± 0.5 J/K/mol; molar heat capacity (257.72 K, Crystal): 336.3 ± 0.5 J/K/mol; molar heat capacity (258.69 K, Crystal): 337.8 ± 0.5 J/K/mol; molar heat capacity (258.81 K, Crystal): 337.8 ± 0.5 J/K/mol; molar heat capacity (260.02 K, Crystal): 339.2 ± 0.5 J/K/mol; molar heat capacity (260.34 K, Crystal): 339.8 ± 0.5 J/K/mol; molar heat capacity (260.64 K, Crystal): 340.4 ± 0.5 J/K/mol; molar heat capacity (260.75 K, Crystal): 340.4 ± 0.5 J/K/mol; molar heat capacity (262.32 K, Crystal): 342.1 ± 0.5 J/K/mol; molar heat capacity (262.38 K, Crystal): 342.4 ± 0.5 J/K/mol; molar heat capacity (262.59 K, Crystal): 342.7 ± 0.5 J/K/mol; molar heat capacity (262.69 K, Crystal): 342.7 ± 0.5 J/K/mol; molar heat capacity (264.34 K, Crystal): 345 ± 0.5 J/K/mol; molar heat capacity (264.53 K, Crystal): 345.3 ± 0.5 J/K/mol; molar heat capacity (264.6 K, Crystal): 345 ± 0.5 J/K/mol; molar heat capacity (264.62 K, Crystal): 345.3 ± 0.5 J/K/mol; molar heat capacity (265.54 K, Crystal): 346.1 ± 0.5 J/K/mol; molar heat capacity (266.29 K, Crystal): 347.3 ± 0.6 J/K/mol; molar heat capacity (266.46 K, Crystal): 347.6 ± 0.6 J/K/mol; molar heat capacity (266.56 K, Crystal): 347.6 ± 0.6 J/K/mol; molar heat capacity (266.89 K, Crystal): 347.9 ± 0.6 J/K/mol; molar heat capacity (267.48 K, Crystal): 348.7 ± 0.6 J/K/mol; molar heat capacity (268.23 K, Crystal): 349.9 ± 0.6 J/K/mol; molar heat capacity (268.4 K, Crystal): 349.9 ± 0.6 J/K/mol; molar heat capacity (268.49 K, Crystal): 350.2 ± 0.6 J/K/mol; molar heat capacity (269.17 K, Crystal): 350.7 ± 0.6 J/K/mol; molar heat capacity (291.91 K, Liquid): 424.4 ± 0.6 J/K/mol; molar heat capacity (293.17 K, Liquid): 425 ± 0.6 J/K/mol; molar heat capacity (293.82 K, Liquid): 425.6 ± 0.6 J/K/mol; molar heat capacity (294.28 K, Liquid): 425.6 ± 0.6 J/K/mol; molar heat capacity (295.28 K, Liquid): 426.2 ± 0.6 J/K/mol; molar heat capacity (295.44 K, Liquid): 426.2 ± 0.6 J/K/mol; molar heat capacity (295.71 K, Liquid): 426.5 ± 0.6 J/K/mol; molar heat capacity (297.38 K, Liquid): 427 ± 0.6 J/K/mol; molar heat capacity (297.43 K, Liquid): 427.3 ± 0.6 J/K/mol; molar heat capacity (297.61 K, Liquid): 427.6 ± 0.6 J/K/mol; molar heat capacity (299.48 K, Liquid): 428.2 ± 0.6 J/K/mol; molar heat capacity (301.69 K, Liquid): 429.6 ± 0.6 J/K/mol; molar heat capacity (304 K, Liquid): 430.8 ± 0.6 J/K/mol; molar heat capacity (306.31 K, Liquid): 431.9 ± 0.6 J/K/mol; molar heat capacity (308.62 K, Liquid): 433.1 ± 0.6 J/K/mol; molar heat capacity (310.93 K, Liquid): 434.5 ± 0.6 J/K/mol; molar heat capacity (313.24 K, Liquid): 435.7 ± 0.6 J/K/mol; molar heat capacity (315.55 K, Liquid): 436.8 ± 0.6 J/K/mol; molar heat capacity (317.86 K, Liquid): 438 ± 0.6 J/K/mol; molar heat capacity (320.17 K, Liquid): 439.1 ± 0.6 J/K/mol; molar heat capacity (322.48 K, Liquid): 440.6 ± 0.6 J/K/mol; molar heat capacity (324.79 K, Liquid): 441.7 ± 0.6 J/K/mol; molar heat capacity (327.1 K, Liquid): 443.2 ± 0.6 J/K/mol; molar heat capacity (329.4 K, Liquid): 444.3 ± 0.6 J/K/mol; molar heat capacity (331.71 K, Liquid): 445.5 ± 0.6 J/K/mol; molar heat capacity (334.02 K, Liquid): 446.6 ± 0.6 J/K/mol; molar heat capacity (336.33 K, Liquid): 448.1 ± 0.7 J/K/mol; molar heat capacity (338.64 K, Liquid): 449.2 ± 0.7 J/K/mol; molar heat capacity (340.94 K, Liquid): 450.7 ± 0.7 J/K/mol; molar heat capacity (343.24 K, Liquid): 451.8 ± 0.7 J/K/mol; molar heat capacity (345.55 K, Liquid): 453 ± 0.7 J/K/mol; molar heat capacity (347.85 K, Liquid): 454.3 ± 0.7 J/K/mol; molar heat capacity (350.16 K, Liquid): 455.5 ± 0.7 J/K/mol; molar heat capacity (352.47 K, Liquid): 456.9 ± 0.7 J/K/mol; molar heat capacity (354.77 K, Liquid): 458.1 ± 0.7 J/K/mol; molar heat capacity (357.08 K, Liquid): 459.5 ± 0.7 J/K/mol; molar heat capacity (359.38 K, Liquid): 460.7 ± 0.7 J/K/mol; molar heat capacity (361.68 K, Liquid): 461.8 ± 0.7 J/K/mol; molar heat capacity (363.99 K, Liquid): 463 ± 0.7 J/K/mol; molar heat capacity (366.29 K, Liquid): 464.4 ± 0.7 J/K/mol; molar heat capacity (368.59 K, Liquid): 465.6 ± 0.7 J/K/mol
